Read-outs that look alike come from different tables or passages of the source.
Tests used:
[1] = tested on: cerebral oedema induced by triethyl tin (TET) in the rat; conditions: in vivo
[2] = rat, in vivo; for weight gain (in words): po, 50 mg/kg/day
[3] = tested on: cerebral oedema induced by triethyl tin (TET) chloride in the rat; conditions: administered during the intoxication with tin, measured after 5 days (Linee et al., 1984); cited from earlier work

| Compound | weight of the dried brain ([1]; po) | Variation in percentage ([1]; po, 50 mg/kg/day) | weight gain (in words) [2] | activity in the preventive protocol [3] | further results |
| --- | --- | --- | --- | --- | --- |
| CC1(c2ccccc2)OC(N)=Nc2ccc(Cl)cc21 (stereo not drawn) [desethyl-etifoxine, 2-amino-6-chloro-4-methyl-4-phenyl-4H-[3,1]benzoxazine] | do not modify this parameter significantly | −0.09% | does not disrupt the weight gain |  | Variation in percentage [1]: +0.39% |
| CCNC1=Nc2ccc(Cl)cc2C(C)(c2ccccc2)O1.Cl (stereo not drawn) [etifoxine, 6-chloro-2-ethylamino-4-methyl-4-phenyl-4H-[3,1]benzoxazine hydrochloride] | do not modify this parameter significantly | −0.30% | does not disrupt weight gain |  | Variation in percentage ([1]; po, 100 mg/kg/day): −0.07%; Body weight in grams (mean ± s.e.m.) [2]: 251 ± 4 grams |
| CC[C@]12CCCN3CCc4c(n(c5ccccc45)[C@@](O)(C(=O)OC)C1)[C@@H]32 [vincamine] |  |  |  | active |  |
| (−)eburnamonine |  |  |  | active |  |
| dihydroergotoxin |  |  |  | active |  |

— patent publication US20070021415A1, “Pharmaceutical composition for the prevention or treatment of cerebral oedemas” (priority 2005, published 2007)
